In patent US20240190880A1 (THE REGENTS OF THE UNIVERSITY OF MICHIGAN, priority 2021, published 2024):

Target: T1, ER (Homo sapiens, UniProt P03372)
T1 construct: host or cells: T47D and MCF7 human breast cancer cells
T1 sequence (P03372 1-595): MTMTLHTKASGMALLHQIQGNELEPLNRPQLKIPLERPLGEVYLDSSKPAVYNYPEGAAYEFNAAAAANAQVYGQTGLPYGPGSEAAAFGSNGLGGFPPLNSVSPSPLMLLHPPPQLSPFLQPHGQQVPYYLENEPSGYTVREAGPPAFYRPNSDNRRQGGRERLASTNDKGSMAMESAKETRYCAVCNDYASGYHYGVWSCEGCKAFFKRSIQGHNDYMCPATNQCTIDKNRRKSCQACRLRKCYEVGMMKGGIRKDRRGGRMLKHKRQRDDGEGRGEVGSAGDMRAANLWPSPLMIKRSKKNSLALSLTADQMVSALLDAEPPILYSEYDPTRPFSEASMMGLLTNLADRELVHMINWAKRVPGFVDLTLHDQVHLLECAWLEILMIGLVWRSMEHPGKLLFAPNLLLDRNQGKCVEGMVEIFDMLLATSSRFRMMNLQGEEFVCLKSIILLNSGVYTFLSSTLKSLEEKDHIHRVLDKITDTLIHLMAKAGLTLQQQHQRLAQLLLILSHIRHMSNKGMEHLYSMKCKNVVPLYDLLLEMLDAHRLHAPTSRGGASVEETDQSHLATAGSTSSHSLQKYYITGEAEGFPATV
Test: ER degradation activity, in-cell western blot analysis in T47D cells
Assay type: cell-based
Details: 16 hours, Table A does not say which cell line (T47D or MCF7), read-out: Potency (DC50)
How it was run: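 Cells were seeded overnight, exposed to diluted compounds for 16 hours, then stained with primary antibodies and with infrared-labelled secondary antibodies (1:1000, 1 h RT). Plates were scanned on a CLX reader, and ER levels were normalised to DMSO-treated wells.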

| DC50 | Compound |
| --- | --- |
| 0.01 to 0.1 µM | O=C1CCC(N2C(=O)c3cc4c(cc3C2=O)CN(CC(=O)N2CCC3(CC2)CCN(c2ccc([C@@H]5c6ccc(O)cc6CCC56CCCC6)cc2)CC3)C4)C(=O)N1 (mixture of isomers) [E 179, Rac-2-(2,6-dioxopiperidin-3-yl)-6-(2-(9-(4-((R)-6′-hydroxy-3′,4′-dihydro-1′H-spiro[cyclopentane-1,2′-naphthalen]-1′-yl)phenyl)-3,9-diazaspiro[5.5]undecan-3-yl)-2-oxoethyl)-6,7-dihydropyrrolo[3,4-f]isoindole-1,3(2H,5H)-dione] |
| 0.01 to 0.1 µM | O=C1CCC(N2C(=O)c3cc4c(cc3C2=O)CN(CC(=O)N2CCC3(CC2)CCN(c2ccc([C@@H]5c6ccc(B(O)O)cc6CC[C@@H]5c5ccccc5)cc2)CC3)C4)C(=O)N1 (mixture of isomers) [E 180, Rac-((5R,6S)-5-(4-(9-(2-(6-(2,6-dioxopiperidin-3-yl)-5,7-dioxo-3,5,6,7-tetrahydropyrrolo[3,4-f]isoindol-2(1H)-yl)acetyl)-3,9-diazaspiro[5.5]undecan-3-yl)phenyl)-6-phenyl-5,6,7,8-tetrahydronaphthalen-2-yl)boronic acid] |
| > 0.1 µM | O=C1CCC(N2C(=O)c3cc4c(cc3C2=O)CN(C(=O)CN2CCC3(CC2)CCN(c2ccc([C@@H]5c6ccc(B(O)O)cc6CC[C@@H]5c5ccccc5)cc2)CC3)C4)C(=O)N1 (mixture of isomers) [E 181, Rac-((5R,6S)-5-(4-(9-(2-(6-(2,6-dioxopiperidin-3-yl)-5,7-dioxo-3,5,6,7-tetrahydropyrrolo[3,4-f]isoindol-2(1H)-yl)-2-oxoethyl)-3,9-diazaspiro[5.5]undecan-3-yl)phenyl)-6-phenyl-5,6,7,8-tetrahydronaphthalen-2-yl)boronic acid] |
| > 0.1 µM | O=C1CCC(N2C(=O)c3cc4c(cc3C2=O)CN(CC(=O)N2CCC3(CC2)CCN(c2ccc([C@@H]5c6ccc(O)cc6CC[C@@H]5c5ccc(F)cc5)cn2)CC3)C4)C(=O)N1 (mixture of isomers) [E 185, Rac-2-(2,6-dioxopiperidin-3-yl)-6-(2-(9-(5-((1S,2S)-2-(4-fluorophenyl)-6-hydroxy-1,2,3,4-tetrahydronaphthalen-1-yl)pyridin-2-yl)-3,9-diazaspiro[5.5]undecan-3-yl)-2-oxoethyl)-6,7-dihydropyrrolo[3,4-f]isoindole-1,3(2H,5H)-dione] |
| 0.01 to 0.1 µM | O=C1CCC(N2C(=O)c3cc4c(cc3C2=O)CN(CCN2CCC3(CC2)CN(c2ccc([C@@H]5c6ccc(O)cc6CC[C@@H]5c5ccccc5)cc2)C3)C4)C(=O)N1 (mixture of isomers) [E 266, rac-2-(2,6-dioxopiperidin-3-yl)-6-(2-(2-(4-((1R,2S)-6-hydroxy-2-phenyl-1,2,3,4-tetrahydronaphthalen-1-yl)phenyl)-2,7-diazaspiro[3.5]nonan-7-yl)ethyl)-6,7-dihydropyrrolo[3,4-f]isoindole-1,3(2H,5H)-dione] |
| 0.01 to 0.1 µM | O=C1CCC(N2C(=O)c3cc4c(cc3C2=O)CN(CCN2CC3(CCN(c5ccc([C@@H]6c7ccc(O)cc7CC[C@@H]6c6ccccc6)cc5)CC3)C2)C4)C(=O)N1 (mixture of isomers) [E 267, rac-2-(2,6-dioxopiperidin-3-yl)-6-(2-(7-(4-((1R,2S)-6-hydroxy-2-phenyl-1,2,3,4-tetrahydronaphthalen-1-yl)phenyl)-2,7-diazaspiro[3.5]nonan-2-yl)ethyl)-6,7-dihydropyrrolo[3,4-f]isoindole-1,3(2H,5H)-dione] |
| 0.01 to 0.1 µM | O=C1CCC(N2C(=O)c3cc4c(cc3C2=O)CN(CCN2CCC3(CC2)CCN(c2ccc([C@@H]5c6ccc(O)cc6CC[C@@H]5c5ccccc5)cc2)CC3)C4)C(=O)N1 (mixture of isomers) [E 268, rac-2-(2,6-dioxopiperidin-3-yl)-6-(2-(9-(4-((1R,2S)-6-hydroxy-2-phenyl-1,2,3,4-tetrahydronaphthalen-1-yl)phenyl)-3,9-diazaspiro[5.5]undecan-3-yl)ethyl)-6,7-dihydropyrrolo[3,4-f]isoindole-1,3(2H,5H)-dione] |
| 0.01 to 0.1 µM | CN(C1CCN(c2ccc([C@@H]3c4ccc(O)cc4CC[C@@H]3c3ccccc3)cc2)CC1)N1CCC(C(=O)N2Cc3cc4c(cc3C2)C(=O)N(C2CCC(=O)NC2=O)C4=O)CC1 (mixture of isomers) [E 287, 2-(2,6-dioxopiperidin-3-yl)-6-(1-((1-(4-((1R,2S)-6-hydroxy-2-phenyl-1,2,3,4-tetrahydronaphthalen-1-yl)phenyl)piperidin-4-yl)(methyl)amino)piperidine-4-carbonyl)-6,7-dihydropyrrolo[3,4-f]isoindole-1,3(2H,5H)-dione] |
| 0.01 to 0.1 µM | CN(C1CCN(c2ccc([C@@H]3c4ccc(O)cc4CC[C@@H]3c3ccccc3)cc2)CC1)N1CCC(C(=O)N2Cc3cc4c(cc3C2)C(=O)N(C2CCC(=O)NC2=O)C4)CC1 (mixture of isomers) [E 288, 3-(6-(1-((1-(4-((1R,2S)-6-hydroxy-2-phenyl-1,2,3,4-tetrahydronaphthalen-1-yl)phenyl)piperidin-4-yl)(methyl)amino)piperidine-4-carbonyl)-1-oxo-3,5,6,7-tetrahydropyrrolo[3,4-f]isoindol-2(1H)-yl)piperidine-2,6-dione] |
| > 0.1 µM | O=C1CCC(N2C(=O)c3cc4c(cc3C2=O)CN(CC(=O)N2CCC3(CC2)CCN(c2ccc([C@@H]5c6ccc(O)cc6CC[C@@H]5c5ccccc5)cn2)CC3)C4)C(=O)N1 (mixture of isomers) [E 297, Rac-2-(2,6-dioxopiperidin-3-yl)-6-(2-(9-(5-((1S,2S)-6-hydroxy-2-phenyl-1,2,3,4-tetrahydronaphthalen-1-yl)pyridin-2-yl)-3,9-diazaspiro[5.5]undecan-3-yl)-2-oxoethyl)-6,7-dihydropyrrolo[3,4-f]isoindole-1,3(2H,5H)-dione] |
| > 0.1 µM | O=C1CCC(N2C(=O)c3cc4c(cc3C2=O)CN(CC(=O)N2CCC3(CC2)CCN(c2ncc([C@@H]5c6ccc(O)cc6CC[C@@H]5c5ccccc5)cn2)CC3)C4)C(=O)N1 (mixture of isomers) [E 298, Rac-2-(2,6-dioxopiperidin-3-yl)-6-(2-(9-(5-((1S,2S)-6-hydroxy-2-phenyl-1,2,3,4-tetrahydronaphthalen-1-yl)pyrimidin-2-yl)-3,9-diazaspiro[5.5]undecan-3-yl)-2-oxoethyl)-6,7-dihydropyrrolo[3,4-f]isoindole-1,3(2H,5H)-dione] |
| > 0.1 µM | CN(C1CCN(c2ccc([C@@H]3c4ccc(O)cc4CC[C@@H]3c3ccccc3)cc2)CC1)N1CCC(CN2Cc3cc4c(cc3C2)C(=O)N(C2CCC(=O)NC2=O)C4)CC1 (mixture of isomers) [E 300, 3-(6-((1-((1-(4-((1R,2S)-6-hydroxy-2-phenyl-1,2,3,4-tetrahydronaphthalen-1-yl)phenyl)piperidin-4-yl)(methyl)amino)piperidin-4-yl)methyl)-1-oxo-3,5,6,7-tetrahydropyrrolo[3,4-f]isoindol-2(1H)-yl)piperidine-2,6-dione] |
| > 0.1 µM | O=C1CCC(N2C(=O)c3cc4c(cc3C2=O)CN(CC(=O)N2CCC3(CC2)CCN(c2cnc([C@@H]5c6ccc(O)cc6CC[C@@H]5c5ccccc5)cn2)CC3)C4)C(=O)N1 (mixture of isomers) [E 304, Rac-2-(2,6-dioxopiperidin-3-yl)-6-(2-(9-(5-((1S,2S)-6-hydroxy-2-phenyl-1,2,3,4-tetrahydronaphthalen-1-yl)pyrazin-2-yl)-3,9-diazaspiro[5.5]undecan-3-yl)-2-oxoethyl)-6,7-dihydropyrrolo[3,4-f]isoindole-1,3(2H,5H)-dione] |
| > 0.1 µM | O=C1CCC(N2C(=O)c3cc4c(cc3C2=O)CN(CC(=O)N2CCC3(CC2)CCN(c2ccc([C@@H]5c6ccc(O)cc6CC[C@@H]5c5ccccc5)nc2)CC3)C4)C(=O)N1 (mixture of isomers) [E 305, Rac-2-(2,6-dioxopiperidin-3-yl)-6-(2-(9-(6-((1S,2S)-6-hydroxy-2-phenyl-1,2,3,4-tetrahydronaphthalen-1-yl)pyridin-3-yl)-3,9-diazaspiro[5.5]undecan-3-yl)-2-oxoethyl)-6,7-dihydropyrrolo[3,4-f]isoindole-1,3(2H,5H)-dione] |
| > 0.1 µM | O=C1CCC(N2C(=O)c3cc4c(cc3C2=O)CN(CC(=O)N2CCC3(CC2)CCN(c2ccc([C@@H]5c6ccc(O)cc6CC[C@@H]5c5ccccc5)nn2)CC3)C4)C(=O)N1 (mixture of isomers) [E 306, Rac-2-(2,6-dioxopiperidin-3-yl)-6-(2-(9-(6-((1S,2S)-6-hydroxy-2-phenyl-1,2,3,4-tetrahydronaphthalen-1-yl)pyridazin-3-yl)-3,9-diazaspiro[5.5]undecan-3-yl)-2-oxoethyl)-6,7-dihydropyrrolo[3,4-f]isoindole-1,3(2H,5H)-dione] |
| > 0.1 µM | C[C@@H]1Cc2cc(O)ccc2[C@@H](c2c(F)cc(N3CCN(C(=O)[C@H]4CC[C@@H](N5Cc6cc7c(cc6C5)C(=O)N(C5CCC(=O)NC5=O)C7=O)CC4)CC3)cc2F)N1CC(F)F (mixture of isomers) [E 352, Rac-6-((1R,4s)-4-(4-(4-((1S,3R)-2-(2,2-difluoroethyl)-6-hydroxy-3-methyl-1,2,3,4-tetrahydroisoquinolin-1-yl)-3,5-difluorophenyl)piperazine-1-carbonyl)cyclohexyl)-2-(2,6-dioxopiperidin-3-yl)-6,7-dihydropyrrolo[3,4-f]isoindole-1,3(2H,5H)-dione] |
